Laboratory results as given in patent US20120076808A1, “COMBINED ANTIGEN AND DNA VACCINE FOR PREVENTING AND TREATING AUTOIMMUNE DISEASES” (CHINA AGRICULTURAL UNIVERSITY, priority 2010, published 2012).

Experiments:
[1] = system: JAWS II cells; experiment: Endocytosis inhibitor pre-treatment of JAWS II cells fed pOVA323+OVA323, CD40 staining; type: cell-based, mouse; details: pre-treatment before pOVA323+OVA323
Procedure: FIG. 24. DCs co-take up DNA and protein immunogens via clathrin- and caveolae-mediated endocytosis. A) JAWS II cells were pre-treated with PBS, MDC (50 μM), or filipin (10 μg/ml) for 30 min at 37° C. and then fed Cy5-pOVA323+FITC-OVA323 or Cy5-pVAX+FITC-OVA323 for 24 h. The cells were stained with anti-CD40-PE and analyzed by flow cytometry. Shown is CD40 staining of Cy5/FITC double-positive cells (gated). B) A summary of the experimental results are shown.
FIG. 30. Effect of amiloride on the expression of CD40 in JAWS II cells. JAWS II cells were pre-treated with amiloride (5 mM) for 10 min at 37° C. and then co-treated with Cy5-pOVA323+FITC-OVA323 or Cy5-pVAX+FITC-OVA323 for 24 h. The cells were stained with anti-CD40-PE and analyzed by flow cytometry.
The JAWS II mouse DC line was purchased from the American Type Culture Collection (ATCC, Manassas, Va., USA) and maintained in complete growth medium containing minimum essential medium (MEM) alpha with ribonucleosides, deoxyribonucleosides, 4 mM L-glutamine, and 1 mM sodium pyruvate (Invitrogen Inc., Carlsbad, Calif., USA), and supplemented with 20% fetal bovine serum (ATCC) and 5 ng/ml murine recombinant GM-CSF (R&D Systems, Inc., Minneapolis, Minn., USA). The cells were incubated at 37° C. with 5% CO2 and treated with different antigens (10 μg/ml) such as pVAX, pOVA, OVA, pOVA323 and OVA323 for 24 h. […]

[2] = system: BALB/c mice with OVA-induced inflammatory bronchitis; experiment: OVA-induced inflammatory bronchitis, adoptive transfer of DCregs; type: in vivo; details: DCs pretreated with filipin
Procedure: FIG. 28. Co-immunization-induced DCregs ameliorate inflammatory bronchitis. A) Experimental design: Balb/c mice were injected with 0.1 ml of 1 mg/ml OVA/alum complexes in PBS on days 0 and 7 by i.p. and subsequently challenged with 100 μg OVA intra-tracheally on days 14, 16 and 18 to establish the “model”. Control mice were received with PBS intra-tracheally on days 14, 16 and 18 and designated as the “shame” control. On day 21, 5×10^5 of CD11c+ cells from syngeneic donor mice were transferred into model mice once daily for 3 consecutive days by i.v. (n=3 per group). Prior to the transfer, donor CD11c+ cells purified from spleen of naïve mice were pre-treated with or without filipin and subsequently co-treated with pOVA+OVA or pVAX+OVA for 24 h. On day 14 after the final transfer, serum samples were taken to analyze the levels of IgE or cytokine productions. Sections of lung tissues were made to evaluate disease severity. B) the level of antigen specific IgE was analyzed by ELISA following adoptive transfer of indicated DCs. […] D) Lung sections were examined by H&E staining and recorded under a light microscope at ×100 and ×200 magnification. […]
Lung or ovary were fixed in 4% paraformaldehyde or Bouin's solution and embedded in paraffin blocks. […] Histopathology of lung or ovary was evaluated under a light microscope. […]

CCCCC[C@@H](O)[C@H]1C(=O)O[C@H](C)[C@@H](O)/C=C/C=C/C=C/C=C/C=C(\C)[C@@H](O)C[C@H](O)C[C@H](O)C[C@H](O)C[C@H](O)C[C@H](O)C[C@@H]1O [filipin]
effect on CD40low phenotype / CD40 expression [1]: could prevent the CD40^1′ phenotype, filipin was more effective than MDC
anti-inflammatory effect of pOVA+OVA treated DCs after inhibitor pre-treatment [2]: absent
